Test results taken from patent US9987299B2, “Methods of improving RNAi in well-differentiated airway epithelia” (University of Iowa Research Foundation, priority 2014, dated 2018).

How the values were obtained:
Human HPRT mRNA = experiment: HPRT mRNA silencing by DsiRNA-Transductin in well-differentiated HAE (RT-qPCR); assay type: cell-based
Experimental: FIG. 1. […] (a) Well-differentiated HAE cultures grown at the ALI were incubated in adding HPRT-targeting or control NC1 DsiRNA (250 nM) formulated with Transductin containing 0.1 or 0.01 mg LOS (HPRT-targeting DsiRNAs) or 0.1 mg LOS (NC1 DsiRNA). After 4 hours, the apical surface was rinsed and 24 hours later, target RNA levels quantified by RT-qPCR. All mRNA levels were normalized to NC1-treated samples. Mean levels were calculated from three biological replicates, each done in triplicate. ***p<0.001, **p<0.01 (Student's t-test). […] Samples were normalized to NC1-treated cells. ***p<0.001, **p<0.01 (Student's t-test). […] PAFRa was present throughout transfection in cells pre-treated with the reagent. Cells were harvested and RNA quantified 24 hrs later. Samples were normalized to NC1-treated cells. **p<0.01 (Student's t-test).
FIG. 3. Spiperone improves RNAi responses in DsiRNA transduced cells. HAE were pre-treated with various small molecules at the concentration indicated. The drugs were added to the apical surface and the basolateral media for 6 hours. Both surfaces were then washed and HPRT or NC1 DsiRNA formulated with Transductin added to the apical surface. The cells were washed after 4 hours, and RT-qPCR done on cell lysates harvested 24 hours later.
Human airway epithelial cells were obtained from trachea and bronchi of lungs removed for organ donation from non-CF individuals. Cells were isolated by enzyme digestion as previously described. Following enzymatic dispersion, cells were seeded at a density of 5×10^5 cells/cm^2 onto collagen-coated, 0.6 cm^2 semi permeable membrane filters (Millipore polycarbonate filters; Millipore Corp., Bedford, Mass.). The cells were maintained at 37° C. in a humidified atmosphere of 5% CO2 air. Twenty-four hours after plating, the apical media was removed and the cells were maintained at an air-liquid interface (ALI) to allow differentiation of the epithelium. The culture medium consisted of 1:1 ratio mix of Dulbecco's modified Eagle's medium (DMEM)/Ham's F12, 5% Ultroser G (Biosepra S A, Cedex, France), 100 U/ml penicillin, 100 μg/ml streptomycin, 1% nonessential amino acids and 0.12 U/ml insulin. Studies were performed on well-differentiated epithelia approximately 4 to 6 weeks after initiation of the ALI cultures conditions. HEp-2 cells were maintained in MEM substituted with 10% fetal bovine serum and 100 U/ml penicillin.
PAF was purchased from Sigma-Aldrich. The reagent was reconstituted in ethanol and used in the experiment at a concentration of 200 nM or as described in the figures. PAF was added to the transfection mixture at the apical surface as well as to the basolateral media. PAFRa (WEB 2086) was purchased from Sigma-Aldrich. […] The reagent was incubated with the cells throughout the transfection period.
All the small molecules tested were purchased from Sigma-Aldrich. The chemicals were reconstituted in appropriate solutions as recommended by the manufacturer. The epithelia were pre-treated with drugs for 6 hours at concentrations used in the CMAP study or noted in the published literature. Following drug treatment, the epithelia were transduced with DsiRNA as described above.
For well-differentiated airway epithelia, transfection was performed mostly according to the manufacturer's protocol. In all cases, the apical surface of epithelia was rinsed twice with PBS before adding the transfection mixture to the apical surface. DsiRNAs were used at a concentration of 250 nM. The mixture was left on the cells for 4 hours after which the medium was removed, the apical surface rinsed with PBS and the cells incubated further for 24 hours. For all experiments, a minimum of 3 biological replicates, in triplicate, were done.
Total RNA was isolated using SV96 RNA isolation kit (Promega, Madison, Wis.), according to manufacturer's protocol. […]

Human CFTR mRNA = experiment: CFTR mRNA silencing by CFTR DsiRNA-Transductin in well-differentiated HAE (RT-qPCR); assay type: cell-based; conditions: CFTR DsiRNA with simultaneous PAF treatment or spiperone pre-treatment
Experimental: FIG. 4. […] Alternatively, spiperone was applied apically and basolaterally to well-differentiated HAE for 6 hours, and then removed by rinsing before incubation for 4 hours with CFTR-targeting or NC1 DsiRNAs complexed with Transductin. In both cases, 24 hours after transfection, and RNA levels quantified by RT-qPCR. (b) A representative immunoblot from similarly treated wells, but cells were lysed and proteins visualized after immunoprecipitation with anti-CFTR antibody. Alpha-tubulin was used as a loading control. (c) Densitometry readings of immunoblots with results normalized to NC1 treated samples. In all cases, data are from 3 biological replicates and are mean±SD. ***p<0.001, **p<0.01 (Student's t-test).
For well-differentiated airway epithelia, transfection was performed mostly according to the manufacturer's protocol. […]
Total RNA was isolated using SV96 RNA isolation kit (Promega, Madison, Wis.), according to manufacturer's protocol. […] One-fifteenth of the cDNA was then amplified and analyzed by using the 5′-nuclease assay in a 7900 Real Time PCR System (Applied Biosystems, Foster city, CA) using primer-probe pairs reaction buffer and Immolase DNA polymerase (Bioline, Taunton, Mass.). […] Absolute quantification of an mRNA target sequence within an unknown sample was determined by reference to a standard curve. […]

Substance: platelet activating factor [PAF]
- duration of knock down: HPRT mRNA levels (Human HPRT mRNA; 1 and 3 days post PAF-assisted transfection): significantly reduced
- duration of knock down: HPRT transcript levels (Human HPRT mRNA; 6 and 10 days post PAF-assisted transfection): returning to basal levels
- dose-response of PAF on DsiRNA silencing (Human HPRT mRNA; PAF at different doses, 4 hours with HPRT DsiRNA-Transductin (FIG. 7)): A dose-response relationship for PAF on DsiRNA silencing was observed
- silencing of CFTR mRNA levels (Human CFTR mRNA): approximately 30%
